Test results as given in ChEMBL document CHEMBL1201862, “PubChem BioAssay data set” (2004).
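Assay format: 96-well plates, 48-hour exposure. At the GI50, growth is halved.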 The source made the active and inactive calls. Rule as the data show it: active = GI50 up to about 1.1 µM and inactive = higher.

How the values were obtained:
Assay in all cases: NCI-60 cell line screen, 48 h
[1] = system: EKVX
[2] = system: CAKI-1
[3] = system: HOP-62
[4] = system: IGROV-1
[5] = system: NCI-H522
[6] = system: RPMI-8226
[7] = system: UO-31
[8] = system: DU-145
[9] = system: COLO 205
[10] = system: NCI-H23
[11] = system: MDA-N
[12] = system: UACC-257
[13] = system: OVCAR-4
[14] = system: SK-MEL-5
[15] = system: HCT-116
[16] = system: SN12C
[17] = system: TK-10
[18] = system: SW-620
[19] = system: BT-549
[20] = system: K562
[21] = system: T47D
[22] = system: HCT-15
[23] = system: MDA-MB-435
[24] = system: UACC-62
[25] = system: LOX IMVI
[26] = system: Hs-578T
[27] = system: RXF 393
[28] = system: SF-268
[29] = system: HL-60
[30] = system: KM12
[31] = system: OVCAR-8
[32] = system: Malme-3M
[33] = system: A498
[34] = system: NCI-H460
[35] = system: SK-MEL-2
[36] = system: OVCAR-5
[37] = system: NCI/ADR-RES
[38] = system: M14
[39] = system: 786-0
[40] = system: PC-3
[41] = system: SF-539
[42] = system: MCF7
[43] = system: OVCAR-3
[44] = system: ACHN
[45] = system: U-251
[46] = system: SR
[47] = system: MOLT-4
[48] = system: NCI-H226
[49] = system: HT-29
[50] = system: HOP-92
[51] = system: CCRF-CEM
[52] = system: SK-MEL-28
[53] = system: SNB-19
[54] = system: MDA-MB-231
[55] = system: SF-295
[56] = system: SNB-75
[57] = system: SK-OV-3
[58] = system: HCC 2998
[59] = system: A549

**Q.** With `CCCCC1(N=[N+]=[N-])C(=O)C2C=CC=C3c4ccccc4N(C1=O)C32` (centres undefined) as the molecule, how does the GI50 [1] read?
**A.** 17.8 µM (inactive)

**Q.** What about the GI50 [2] of the same molecule?
**A.** 19.8 µM (inactive)

**Q.** What about the GI50 [3] of the same molecule?
**A.** 27.1 µM (inactive)

**Q.** And the GI50 [4]?
**A.** 11.3 µM (inactive)

**Q.** And the GI50 [5]?
**A.** 13.6 µM (inactive)

**Q.** What about the GI50 [6] of the same molecule?
**A.** 17.7 µM (inactive)

**Q.** What about the GI50 [7] of the same molecule?
**A.** 18.8 µM (inactive)

**Q.** What about the GI50 [8] of the same molecule?
**A.** 58.5 µM (inactive)

**Q.** What about the GI50 [9] of the same molecule?
**A.** 18.5 µM (inactive)

**Q.** What about the GI50 [10] of the same molecule?
**A.** 14.4 µM (inactive)

**Q.** And the GI50 [11]?
**A.** 15.7 µM (inactive)

**Q.** And the GI50 [12]?
**A.** 18.4 µM (inactive)

**Q.** And the GI50 [13]?
**A.** 21.6 µM (inactive)

**Q.** What about the GI50 [14] of the same molecule?
**A.** 16.4 µM (inactive)

**Q.** What about the GI50 [15] of the same molecule?
**A.** 18.1 µM (inactive)

**Q.** And the GI50 [16]?
**A.** 30.1 µM (inactive)

**Q.** What about the GI50 [17] of the same molecule?
**A.** 16.4 µM (inactive)

**Q.** What about the GI50 [18] of the same molecule?
**A.** 20.2 µM (inactive)

**Q.** What about the GI50 [19] of the same molecule?
**A.** 24.5 µM (inactive)

**Q.** What about the GI50 [20] of the same molecule?
**A.** 17.3 µM (inactive)

**Q.** And the GI50 [21]?
**A.** 14.1 µM (inactive)

**Q.** What about the GI50 [22] of the same molecule?
**A.** 17.2 µM

**Q.** And the GI50 [23]?
**A.** 19.1 µM (inactive)

**Q.** And the GI50 [24]?
**A.** 23.1 µM (inactive)

**Q.** And the GI50 [25]?
**A.** 17.9 µM (inactive)

**Q.** What about the GI50 [26] of the same molecule?
**A.** 12.3 µM (inactive)

**Q.** And the GI50 [27]?
**A.** 13.7 µM (inactive)

**Q.** What about the GI50 [28] of the same molecule?
**A.** 19.9 µM (inactive)

**Q.** What about the GI50 [29] of the same molecule?
**A.** 34 µM (inactive)

**Q.** And the GI50 [30]?
**A.** 24.8 µM (inactive)

**Q.** And the GI50 [31]?
**A.** 20.1 µM (inactive)

**Q.** What about the GI50 [32] of the same molecule?
**A.** 23 µM (inactive)

**Q.** And the GI50 [33]?
**A.** > 10 µM (inactive)

**Q.** And the GI50 [34]?
**A.** 17.2 µM (inactive)

**Q.** What about the GI50 [35] of the same molecule?
**A.** 11 µM (inactive)

**Q.** And the GI50 [36]?
**A.** 19.8 µM (inactive)

**Q.** And the GI50 [37]?
**A.** 17.7 µM (inactive)

**Q.** What about the GI50 [38] of the same molecule?
**A.** 19.3 µM (inactive)

**Q.** What about the GI50 [39] of the same molecule?
**A.** 22 µM (inactive)

**Q.** And the GI50 [40]?
**A.** 18.9 µM (inactive)

**Q.** What about the GI50 [41] of the same molecule?
**A.** 20 µM (inactive)

**Q.** What about the GI50 [42] of the same molecule?
**A.** 17.1 µM (inactive)

**Q.** What about the GI50 [43] of the same molecule?
**A.** 21.6 µM (inactive)

**Q.** And the GI50 [44]?
**A.** 17.5 µM (inactive)

**Q.** What about the GI50 [45] of the same molecule?
**A.** 18.7 µM (inactive)

**Q.** What about the GI50 [46] of the same molecule?
**A.** > 10 µM (inactive)

**Q.** And the GI50 [47]?
**A.** 15.3 µM (inactive)

**Q.** What about the GI50 [48] of the same molecule?
**A.** 21.3 µM (inactive)

**Q.** And the GI50 [49]?
**A.** 14.1 µM (inactive)

**Q.** And the GI50 [50]?
**A.** > 10 µM (inactive)

**Q.** And the GI50 [51]?
**A.** 18.5 µM (inactive)

**Q.** What about the GI50 [52] of the same molecule?
**A.** 78.2 µM (inactive)

**Q.** And the GI50 [53]?
**A.** 22.1 µM (inactive)

**Q.** And the GI50 [54]?
**A.** 23.6 µM (inactive)

**Q.** And the GI50 [55]?
**A.** 24.7 µM (inactive)

**Q.** And the GI50 [56]?
**A.** 11.6 µM (inactive)

**Q.** What about the GI50 [57] of the same molecule?
**A.** 25.8 µM (inactive)

**Q.** And the GI50 [58]?
**A.** 15.6 µM (inactive)

**Q.** And the GI50 [59]?
**A.** 19.5 µM (inactive)
